The values below are quoted from earlier work in patent US8183227B1, “Compositions, kits and methods for nutrition supplementation” (Chemo S. A. France, priority 2011, dated 2012).

The conditions of the data set: intake of about 1000 IU per day, all adults.

For `C=C1CC[C@H](O)C/C1=C/C=C1\CCC[C@]2(C)[C@@H]([C@H](C)CCCC(C)C)CC[C@@H]12` [vitamin D3, cholecalciferol], the “share of the population brought up to the 30 ng/ml serum range for 25-hydroxyvitamin D” value was “at least 50 % of the population”.
